Experimental data reported in paper PMC6269653, “Stability and Antioxidant Activity of Semi-synthetic Derivatives of 4-Nerolidylcatechol” (Molecules, 2012).
pIC50: −log10 of the molar value. Where “and” joins values, the source holds several entries; their conditions need not be identical. Equal values may be shown once. Read-outs that look alike come from different tables or passages of the source. Marks after values point to notes of the source that are not given here.

Experiments:
[1] = test system: 3T3L1 mouse embryonic fibroblast cell line; assay: Cellular antioxidant activity (oxidation of DCFH-DA); assay type: cell-based; parameters: inhibition of the oxidation of DCFH-DA in 3T3L1 cells: concentration or dose not given beside the values; settings: for loss of antioxidant activity after storage: DMSO solution stored at −20 °C for 30 days; for inhibition of the oxidation of DCFH-DA in 3T3L1 cells: over the observation period of 60 min
Protocol: These tests evaluate the reducing effect of a given substance on the radical species formed in situ during these assays leading to a decrease in color versus controls that is measured spectrophotometrically. […] Thus, at a concentration of 250 µM, 4-NC inhibited DPPH• and ABTS+• by 97% and 95%, respectively. Mono-O-substituted 4-NC derivatives 2–5 inhibited ABTS+• by 89–93%. […] The antioxidant activity was also evaluated in mouse embryonic 3T3L1 fibroblasts. In this assay DCFH-DA (2',7'-dichlorofluorescein diacetate) is hydrolyzed by intracellular esterases and then oxidized by reactive oxygen species (ROS) to the fluorescent compound 2'-7'-DCF. An active antioxidant substance can inhibit the transformation of fatty acids to fatty acid hydroperoxides in the cell membranes and thereby inhibit the oxidation of DCFH-DA.
The antioxidant activity of 4-NC and semi-synthetic derivatives of 4-NC was evaluated on the 1st and 30th days after dissolving the substances in DMSO at a concentration of 10 mM and storage in a freezer at −20 °C. This experiment permitted the evaluation of the relative stability of the antioxidant activity of 4-NC, derivatives of 4-NC, BHT and BHA. Thus, cellular antioxidants were evaluated using the mouse embryonic fibroblast 3T3L1 cell line. […] The presence of mono-O or di-O,O substituent groups in the 4-NC derivatives can confer stability relative to 4-NC. Such chemical stability is highly desirable when contemplating the use of such substances in cosmetic and pharmaceutical formulations and foods. Here, 4-NC dissolved in DMSO lost more than 80% of its antioxidant activity after 30 days in the freezer.
Intracellular ROS production was detected using the non-fluorescent cell permeating compound, 2'7'-dichlorofluorescein diacetate (DCF-DA), as described by Wolfe and Liu. DCF-DA is hydrolyzed by intracellular esterases and then oxidized by hydroperoxides into the fluorescent compound, 2'-7'-DCF. 3T3-L1 cells were seeded at a density of 6 × 10^4 cells/well in a 96-well microplate in 100 μL of growth medium. 24 h after seeding, the growth medium was removed and the wells were washed with PBS. Then, a 10 μM solution of DCFH-DA dissolved in Hank’s buffer (100 μL) was added to wells and incubated for 30 min at 37 °C and 5% CO2. The cells were washed first with PBS (100 μL) then EEP (100 µL) and samples having different concentrations were added. The fluorescence was immediately measured at an excitation wavelength of 485 nm and emission wavelength of 520 nm over 60 min at 5 min intervals. Controls with/without DCFH-DA were prepared and subjected to analogous procedures. Quercetin, BHA and BHT were used as positive controls of antioxidant activity.

[2] = DPPH radical-scavenging activity; assay type: biochemical; settings: compounds tested at 250 µM, mean ± standard deviation, n = 3
Protocol: The measurement of the scavenger activity of DPPH• was carried out according to the method of Molineux with modifications. Substances at 250 µM were added, at an equal volume, to the methanol solution of DPPH• ([…]). After 15 min at room temperature, the absorbance was recorded at 517 nm (sample abs). The experiment was repeated three times. BHT, BHA were used as controls. Values denote percentage of DPPH free radical inhibition. The antioxidant activity was calculated using the equation: % inhibition = 100 × (1 − sample abs/control abs).

[3] = ABTS radical-scavenging activity; assay type: biochemical; settings: compounds tested at 250 µM; mean ± standard deviation, n = 3
Protocol: The ABTS assay used herein was based on the method of Re et al. with slight modifications. Substances at concentrations of 250 µM, BHT or BHA were added to dilute ABTS solution and the absorbance at […] was measured. The antioxidant activity was calculated using the equation: % inhibition = 100 × (1 − sample abs/control abs).

Brine shrimp assay = assay: Brine shrimp assay; parameters: species or system Artemia franciscana; settings: Artemia franciscana (brine shrimp), in vivo, read-out: Toxicity Brine shrimp (Artemia franciscana) (LC50)
Artemia franciscana = assay: Brine shrimp assay; settings: in vivo
tumor cell lines = settings: cited from earlier work
[4] = test system: Mouse embryonic fibroblast cells (3T3L1 line); assay: Cell viability assay (alamar blue); assay type: cell-based; settings: Mus musculus, 3T3-L1, alamar blue; ‡ >50 µg/mL; read-out: Toxicity Mouse embryonic fibroblast cells (3T3L1 line) (IC50)
Protocol: The cytotoxicity of 4-NC and derivatives of 4-NC 1–8 to mouse embryonic fibroblast line 3T3L1 was evaluated using alamar blue to measure cell survival/proliferation. The substances at different concentrations (12.5, 25 and 50 µM) were separately incubated with cells and the number of viable cells was counted after 24, 48 and 72 h. […] O,O-Dibenzyl 4-NC (1) was not active (i.e. not toxic to A. franciscana) in the brine shrimp assay (Table 1).
3T3-L1 cells (mouse embryonic fibroblasts) were obtained from the Cell Bank of Rio de Janeiro, Brazil and were maintained in Dulbecco’s Modified Eagle Medium (DMEM) which was supplemented with 10% fetal bovine serum (FBS), penicillin (100 U/mL) and streptomycin (100 U/mL). The cells were incubated at 37 °C in a humidified atmosphere containing 5% of CO2.
The cytotoxicity of 4-NC and its semi-synthetic derivatives 1–8 to the 3T3L1 mouse embryonic fibroblast cell line fibroblasts was determined by the alamar blue method as described by Nakayama and co-workers. The alamar blue assay is a colorimetric assay involving the cellular reduction of resazurin to resorufin. Briefly, adherent cells (5 × 10^3 cells/well) were grown in 96-well tissue culture plates and exposed to substances (50, 25 and 12.5 μM) for 24, 48 and 72 h. After incubation, the alamar blue solution (10 µL of 0.4% alamar blue (resazurin) in PBS) was added and the cells were incubated for 2 h at 37 °C. Fluorescence was measured (excitation at 545 nm and emission at 595 nm) and expressed as a percentage of the cells in the control after background fluorescence was subtracted. The assays were performed in triplicate.

[5] = † >500 µg/mL, 4 and 5 tested separately

increase of antioxidant activity after storage ([1]; DMSO solution, 30 days of storage in the freezer, 3T3L1 cells) | Structure (SMILES) | loss of antioxidant activity after storage ([1]; 3T3L1 cells) | DPPH• (%) percentage of inhibition ([2]; 250 µM) | ABTS (%) percentage of inhibition [3] | LC50 (Brine shrimp assay; [5]) | cytotoxic activity against Artemia franciscana in the brine shrimp assay (Artemia franciscana) | activity against tumor cells (tumor cell lines) | pIC50 [4] | DPPH• (%) percentage of inhibition [2] | pIC50 (tumor cell lines; read-out: cytotoxicity IC50 against four tumor cell lines, four tumor cell lines) | inhibition of the oxidation of DCFH-DA in 3T3L1 cells [1] | LC50 (Brine shrimp assay)
– | COc1ccc(O)c(C(C)(C)C)c1 [BHA, butylated hydroxyanisole, reference compound] | ≥ 70% | 98% and 97.97 ± 0.10 ^a % | 94.71 ± 0.47 ^a % | – | – | – | – | – | – | – | –
approximately 100% | Cc1cc(C(C)(C)C)c(O)c(C(C)(C)C)c1 [BHT, butylated hydroxytoluene, reference compound] | – | 17% and 16.84 ± 0.81 ^c % | 93.13 ± 0.18 ^a % | – | – | – | – | – | – | – | –
– | C=CC(C)(CC/C=C(\C)CCC=C(C)C)c1ccc(OCc2ccccc2)c(OCc2ccccc2)c1 (stereo not shown) [Compound 1, O,O-Dibenzyl 4-NC] | – | – | 7.97 ± 2.72 ^b % | > 1000 µM | not active | inactive | < 4.00 | 4.35 ± 0.71 ^c % | – | – | –
– | C=CC(C)(CC/C=C(\C)CCC=C(C)C)c1ccc(O)c(OCc2ccccc2)c1 (stereo not shown) [Compound 3, 2O-monobenzyl derivative of 4-NC] | – | – | 93.31 ± 0.30 ^a % | > 1200 µM | weak cytotoxic activity | – | < 3.91 | 48.09 ± 1.33 ^b % | 4.38 to 4.60 | – | –
– | C=CC(C)(CCC1OC1(C)CCC1OC1(C)C)c1ccc(OC(C)=O)c(OC(C)=O)c1 (stereo not shown) [Compound 8] | – | – | 0.31 ± 0.01 ^c % | – | – | – | < 3.94 | 7.39 ± 3.66 ^c % | – | ≥ 20% | –
– | C=CC(C)(CC/C=C(\C)CCC=C(C)C)c1ccc(OC(=O)c2ccccc2)c(OC(=O)c2ccccc2)c1 (stereo not shown) [Compound 6, O,O-dibenzoyl 4-NC] | – | – | 8.83 ± 0.23 ^b % | – | moderately toxic | inactive | < 4.02 | 3.46 ± 0.63 ^c % | – | ≥ 20% | 69 µM
– | O=c1c(O)c(-c2ccc(O)c(O)c2)oc2cc(O)cc(O)c12 [Quercetin, quercetin, reference compound] | ≥ 70% | – | 99.7 ± 0.02 ^a % | – | – | – | – | 91.4 ± 0.12 ^a % | – | – | –
– | C=CC(C)(CC/C=C(\C)CCC=C(C)C)c1ccc(OCc2ccccc2)c(O)c1 (stereo not shown) [Compound 2, 1-O-benzyl 4-NC] | – | – | 91.12 ± 0.68 ^a % | 1000 µM | weak cytotoxic activity | inactive | – | 44.20 ± 0.01 ^b % | – | – | –
